{"source": "patent US20200330429A1", "about": "“METHOD OF TREATING TRUNCAL ACNE WITH TRIFAROTENE” (priority 2019, published 2020)", "key": {"[1]": {"test_system": "keratinocytes", "settings": "cited from earlier work"}, "[2]": {"test_system": "moderate facial acne", "test": "PERFECT 1, 12-week vehicle-controlled study, facial acne efficacy", "assay_type": "in vivo, human", "description": "(§1) A multi-center (United States, Canada, Europe and Russia), 12-week, double-blinded, and vehicle controlled group study with a 1:1 randomization pattern (once daily trifarotene 50 μg/g or vehicle cream) was conducted in subjects with moderate facial and truncal acne. Enrolled patients or caregivers received instruction about how to apply a thin layer of study drug daily at bedtime on the face and self-reachable trunk. Patients were also instructed to cleanse the skin and not to apply moisturizer one hour before or one hour after study drug application. Use of moisturizer was encouraged from the initiation of treatment. Investigators could reduce the frequency of application to alternate days for a maximum of 2 weeks in the first 4 weeks following the Baseline visit when needed to manage irritation. The patients were selected based on the following criteria.\nInclusion Criteria: • 1. Male or female patients 9 years or older. • 2. Moderate facial acne, defined as: Investigator Global Assessment (IGA) score of 3 on the face. Minimum of 20 inflammatory lesions and 25 non-inflammatory lesions on the face at Screening and Baseline • 3. Moderate truncal acne with Physician Global Assessment (PGA) score of 3 at Screening and Baseline. Minimum of 20 inflammatory lesions and 20 non-inflammatory lesions but no more than 100 non-inflammatory lesion counts on the trunk (shoulders, upper back and upper anterior chest) reachable to self-application of study drug by the subject at Screening and Baseline (optional criterion for subject between 9 and 11 years of age). • 4. Accessible treated areas of the trunk were defined for the study. The trunk anatomical region assessment was pre-defined by a size-fitted T-shirt (patent # US00D7580485, Jun. 7, 2016). This ensured consistency for study assessment areas throughout the study duration. • 5. […]\n(§2) Severity definitions for IGA and PGA scales [5-point scales ranging from 0 (clear) to 4 (severe)] were the same. Lesion counts were performed and IGA and PGA were assessed at Screening, Baseline, and Weeks 1, 2, 4, 8, and 12/ET visits. […]"}, "[3]": {"test_system": "moderate truncal acne", "test": "PERFECT 2, 12-week vehicle-controlled study, truncal acne efficacy", "assay_type": "in vivo, human", "description": "as §1\n(§3) Inclusion Criteria: • 1. Male or female patients 9 years or older. • 2. Moderate facial acne, defined as: Investigator Global Assessment (IGA) score of 3 on the face. Minimum of 20 inflammatory lesions and 25 non-inflammatory lesions on the face at Screening and Baseline • 3. […]\nas §2"}, "[4]": {"test_system": "moderate truncal acne", "test": "PERFECT 1, 12-week vehicle-controlled study, truncal acne efficacy", "assay_type": "in vivo, human", "description": "as §1, §3, §2"}, "[5]": {"test_system": "subjects with moderate facial and truncal acne", "test": "PERFECT 1 safety: local tolerability and adverse events", "assay_type": "in vivo, human", "description": "as §1\n(§4) Safety was assessed through adverse events, vital signs and routine laboratory testing. Safety assessments included treatment emergent adverse events (TEAE5), standard laboratory safety tests at screening and last study visit including hematology, blood chemistry, and urinalysis (Barc Central Laboratory, US and Belgium), physical examination, and monitoring of vital signs. Local tolerability signs/symptoms expected with a topical retinoid were collected separately from adverse events to better characterize the tolerability profile of trifarotene cream. These included erythema, scaling, dryness, and stinging/burning scored on a 4-point scale, none=0, mild=1, moderate=2, severe=3. Subjects were specifically queried at each study visit, including Baseline, for the presence of local signs or symptoms. Signs and/or symptoms of local cutaneous irritation assessed with the tolerability scale were considered to be Adverse Events if they were severe enough to lead to permanent discontinuation of study product treatment or required use of concomitant treatment including over-the-counter products (other than moisturizers). Subjects were assessed at screening/baseline and Weeks 1, 2, 4, 8 and 12.\n(§5) Trifarotene or the vehicle were applied once daily in the evening for 12 weeks. The liberal use of a non-comedogenic and hypoallergenic moisturizer and non-comedogenic sunscreen was allowed. Trifarotene or the vehicle were not to be applied to cuts, abrasions, eczematous, or sunburned skin."}, "[6]": {"test_system": "subjects with moderate facial and truncal acne", "test": "PERFECT 2 safety: local tolerability and adverse events", "assay_type": "in vivo, human", "description": "as §1, §4, §5"}, "[7]": {"test_system": "moderate facial acne", "test": "SATisFy 52-week study, facial acne efficacy and quality of life", "assay_type": "in vivo, human", "description": "(§6) A multi-center, 52-week, […] group study (SATisFy) with once daily trifarotene 50 μg/g was conducted in subjects with moderate facial and truncal acne. The screening/baseline weeks were 1, 2, 4, 8, 12, 20, 26, 38 & week 52. Inclusion/exclusion criteria and assessment are as described in Example 1, unless mentioned otherwise. Additional assessments may include subject's facial acne assessment, quality of life (DLQI and CDLQI) and standard facial and trunk photography.\n(§7) Efficacy • Success rate: IGA/PGA score of 2 grade in improvement and Clear (0) or Almost Clear (1) • Grade change from baseline of IGA & PGA • Subject's assessment of facial acne improvement."}, "[8]": {"settings": "hepatic microsomes; cited from earlier work"}, "[9]": {"test_system": "moderate facial acne", "test": "PERFECT 2, 12-week vehicle-controlled study, facial acne efficacy", "assay_type": "in vivo, human", "description": "as §1\nInclusion Criteria: • 1. Male or female patients 9 years or older. • 2. Moderate facial acne, defined as: Investigator Global Assessment (IGA) score of 3 on the face. Minimum of 20 inflammatory lesions and 25 non-inflammatory lesions on the face at Screening and Baseline • 3. Moderate truncal acne with Physician Global Assessment (PGA) score of 3 at Screening and Baseline. Minimum of 20 inflammatory lesions and 20 non-inflammatory lesions but no more than 100 non-inflammatory lesion counts on the trunk (shoulders, upper back and upper anterior chest) reachable to self-application of study drug by the subject at Screening and Baseline (optional criterion for subject between 9 and 11 years of age). • 4. Accessible treated areas of the trunk were defined for the study. The trunk anatomical region assessment was pre-defined by a size-fitted T-shirt (patent # US00D7580485, Jun. 7, 2016). This ensured consistency for study assessment areas throughout the study duration. • 5. For subjects aged 9 to 11 years, inclusion criteria regarding truncal acne were optional due to relative rarity of trunk involvement (compared with face) in this age group.\nPrimary Efficacy Endpoints • Success rate, defined as the percentage of subjects who achieved an IGA score on the face of 1 (Almost Clear) or 0 (Clear) and at least a 2-grade improvement from Baseline to Week 12. • Absolute and percent change (supportive efficacy endpoint) in facial inflammatory lesion count from Baseline to Week 12. • Absolute and percent change (supportive efficacy endpoint) in facial non-inflammatory lesion count from Baseline to Week 12.\nSeverity definitions for IGA and PGA scales [5-point scales ranging from 0 (clear) to 4 (severe)] were the same. Lesion counts were performed and IGA and PGA were assessed at Screening, Baseline, and Weeks 1, 2, 4, 8, and 12/ET visits.\nTrifarotene or the vehicle were applied once daily in the evening for 12 weeks. […]"}, "[10]": {"test_system": "subjects with moderate facial and truncal acne", "test": "PERFECT 1 and PERFECT 2, statements for both studies together", "assay_type": "in vivo, human", "description": "Enrolled patients or caregivers received instruction about how to apply a thin layer of study drug daily at bedtime on the face and self-reachable trunk. Patients were also instructed to cleanse the skin and not to apply moisturizer one hour before or one hour after study drug application. Use of moisturizer was encouraged from the initiation of treatment. […] The patients were selected based on the following criteria. […] Lesion counts were performed and IGA and PGA were assessed at Screening, Baseline, and Weeks 1, 2, 4, 8, and 12/ET visits. Safety was assessed through adverse events, vital signs and routine laboratory testing. Safety assessments included treatment emergent adverse events (TEAE5), standard laboratory safety tests at screening and last study visit including hematology, blood chemistry, and urinalysis (Barc Central Laboratory, US and Belgium), physical examination, and monitoring of vital signs. Local tolerability signs/symptoms expected with a topical retinoid were collected separately from adverse events to better characterize the tolerability profile of trifarotene cream. […] Subjects were specifically queried at each study visit, including Baseline, for the presence of local signs or symptoms. Signs and/or symptoms of local cutaneous irritation assessed with the tolerability scale were considered to be Adverse Events if they were severe enough to lead to permanent discontinuation of study product treatment or required use of concomitant treatment including over-the-counter products (other than moisturizers). […] Trifarotene or the vehicle were applied once daily in the evening for 12 weeks. The liberal use of a non-comedogenic and hypoallergenic moisturizer and non-comedogenic sunscreen was allowed. Trifarotene or the vehicle were not to be applied to cuts, abrasions, eczematous, or sunburned skin."}, "[11]": {"test_system": "moderate truncal acne", "test": "SATisFy 52-week study, truncal acne efficacy", "assay_type": "in vivo, human", "description": "as §6, §7"}, "[12]": {"settings": "week 12, trunk population, SATisFy"}, "[13]": {"settings": "week 52, trunk population, SATisFy"}}}
{"molecule": "CC(C)(C)c1cc(-c2cc(-c3ccc(C(=O)O)cc3)ccc2OCCO)ccc1N1CCCC1", "note": "[trifarotene, 3″-tert-Butyl-4′-(2-hydroxy-ethoxy)-4″-pyrrolidin-1-yl-[1,1′,3′,1″]terphenyl-4-carboxylic acid]", "values": [{"measurement": "metabolic stability", "setting": "[1]", "value": "metabolically stable"}, {"measurement": "statistically significant superior facial IGA success rates vs vehicle, at week", "setting": "[2]; PERFECT 1", "value": 4, "unit": "week"}, {"measurement": "Inflammatory Lesions Mean Absolute Change from baseline", "setting": "[2]; face, Week 12, PERFECT 1", "value": "−19.0"}, {"measurement": "IGA Success (%)", "setting": "[2]; face, Week 12, PERFECT 1, 50 μg/g once daily", "value": 29.4, "unit": "%"}, {"measurement": "statistically significantly superior reductions in inflammatory and non-inflammatory lesions on the trunk, starting by week", "setting": "[3]; PERFECT 2", "value": 2, "unit": "week"}, {"measurement": "PGA Success (%)", "setting": "[3]; trunk, Week 12, PERFECT 2", "value": 42.6, "unit": "%"}, {"measurement": "statistically significantly superior reductions in inflammatory and non-inflammatory lesions on the trunk, starting by week", "setting": "[4]; PERFECT 1", "value": 4, "unit": "week"}, {"measurement": "PGA Success (%)", "setting": "[4]; trunk, Week 12, PERFECT 1", "value": 35.7, "unit": "%"}, {"measurement": "Severe AEs considered related to trifarotene therapy, subjects", "setting": "[5]", "value": 6, "unit": "subjects"}, {"measurement": "Severe related AE: dermatitis allergic, number", "setting": "[5]", "value": 1}, {"measurement": "Severe related AE: skin irritation, number", "setting": "[5]", "value": 4}, {"measurement": "Severe related AE: sunburn, number", "setting": "[5]", "value": 1}, {"measurement": "Severe AEs considered related to trifarotene therapy, subjects", "setting": "[6]", "value": 3, "unit": "subjects"}, {"measurement": "Severe related AE: application site erosion, number", "setting": "[6]", "value": 1}, {"measurement": "Severe related AE: application site irritation, number", "setting": "[6]", "value": 1}, {"measurement": "Severe related AE: application site pain, number", "setting": "[6]", "value": 1}, {"measurement": "success rates, facial acne", "setting": "[7]; Wk12 (166/401)", "value": 41.4, "unit": "%"}, {"measurement": "success rates, facial acne", "setting": "[7]; Wk26 (201/367)", "value": 54.8, "unit": "%"}, {"measurement": "success rates, facial acne", "setting": "[7]; Wk52 (233/350)", "value": 66.6, "unit": "%"}, {"measurement": "subjects who reported that acne had no effect on quality of life", "setting": "[7]; week 52 (92/171), 22.6% at Baseline", "value": 53.8, "unit": "%"}, {"measurement": "metabolism", "setting": "[8]", "value": "rapidly metabolized"}, {"measurement": "statistically significant superior facial IGA success rates vs vehicle, at week", "setting": "[9]; PERFECT 2", "value": 8, "unit": "week"}, {"measurement": "Inflammatory Lesions Mean Absolute Change from baseline", "setting": "[9]; face, Week 12, PERFECT 2", "value": "−24.2"}, {"measurement": "Non-inflammatory Lesions Mean Absolute Change from baseline", "setting": "[9]; face, Week 12, PERFECT 2", "value": "−30.1"}, {"measurement": "IGA Success (%)", "setting": "[9]; face, Week 12, PERFECT 2, 50 μg/g once daily", "value": 42.3, "unit": "%"}, {"measurement": "changes in vital signs, physical exams and laboratory parameters", "setting": "[10]; PERFECT 1 and PERFECT 2", "value": "no significant clinically relevant changes"}, {"measurement": "serious AEs", "setting": "[10]; PERFECT 1 and PERFECT 2", "value": "no AE was serious"}, {"measurement": "success rates on the trunk statistically significant vs vehicle, starting at week", "setting": "[10]; both studies", "value": 8, "unit": "week"}, {"measurement": "facial lesion count reductions, statistical differences vs vehicle apparent as early as week", "setting": "[10]; face", "value": "1-2 week"}, {"measurement": "overall success rate in same subject for truncal acne", "setting": "[11]; Wk12 (87/396)", "value": 22.0, "unit": "%"}, {"measurement": "overall success rate in same subject for truncal acne", "setting": "[11]; Wk20 (138/375)", "value": 36.8, "unit": "%"}, {"measurement": "overall success rate in same subject for truncal acne", "setting": "[11]; Wk26 (157/363)", "value": 43.3, "unit": "%"}, {"measurement": "overall success rate in same subject for truncal acne", "setting": "[11]; Wk38 (177/355)", "value": 49.9, "unit": "%"}, {"measurement": "overall success rate in same subject for truncal acne", "setting": "[11]; Wk52 (199/344)", "value": 57.9, "unit": "%"}, {"measurement": "PGA success rates", "setting": "[11]; [12]", "value": 38.6, "unit": "%"}, {"measurement": "trunk IGA success rates", "setting": "[11]; [12]", "value": 26.6, "unit": "%"}, {"measurement": "success rates (IGA)", "setting": "[11]; [13]", "value": 65.1, "unit": "%"}, {"measurement": "success rates (PGA)", "setting": "[11]; [13]", "value": 66.9, "unit": "%"}]}
